Measurements as given in ChEMBL document CHEMBL3763064, “Discovery of silyl proline containing HCV NS5A inhibitors with pan-genotype activity: SAR development” (Bioorg Med Chem Lett, 2016).
pEC50: −log10 of the molar value.

How the values were obtained:
Hepatitis C virus [1] = assay: Antiviral activity against HCV genotype 3a by replicon assay; type: functional, organism-based, Hepacivirus hominis
Hepatitis C virus [2] = assay: Antiviral activity against HCV genotype 1a expressing NS5A Y93H mutant by replicon assay; type: functional, organism-based, Hepacivirus hominis; conditions: subtype 1a
Hepatitis C virus [3] = assay: Antiviral activity against HCV genotype 1b by replicon assay; type: functional, organism-based, Hepacivirus hominis
Hepatitis C virus [4] = assay: Antiviral activity against HCV genotype 2a by replicon assay; type: functional, organism-based, Hepacivirus hominis
Hepatitis C virus [5] = assay: Antiviral activity against HCV genotype 1a by replicon assay; type: functional, organism-based, Hepacivirus hominis; conditions: subtype 1a
Rattus norvegicus = assay: AUC in Sprague-Dawley rat at 5 mg/kg, po; type: ADME, organism-based; conditions: in vivo
[6] = Half life in iv dosed Sprague-Dawley rat; type: ADME, organism-based; conditions: in vivo

Row | Compound | pEC50 (Hepatitis C virus [1]) | pEC50 (Hepatitis C virus [2]) | pEC50 (Hepatitis C virus [3]) | pEC50 (Hepatitis C virus [4]) | pEC50 (Hepatitis C virus [5]) | AUC (Rattus norvegicus) [uM.hr/ml] | half-life [6] [h]
1 | COC(=O)N[C@H](C(=O)N1CCC[C@H]1c1ncc(-c2ccc(-c3ccc(-c4cnc([C@@H]5CCCN5C(=O)[C@@H](NC(=O)OC)C(C)C)[nH]4)cc3)cc2)[nH]1)C(C)C | 9.15 | 6.70 | 11.00 | 10.40 |  |  | 
2 | COC(=O)N[C@H](C(=O)N1C[Si](C)(C)C[C@H]1c1ncc(-c2ccc(-c3ccc4c(ccc5nc([C@@H]6CCCN6C(=O)[C@@H](NC(=O)OC)C(C)C)[nH]c54)c3)nc2)[nH]1)C(C)C |  | 6.73 | 10.85 |  | 10.40 |  | 
3 | COC(=O)N[C@H](C(=O)N1CCC[C@H]1c1ncc(-c2ccc(-c3ccc4c(ccc5nc([C@@H]6C[Si](C)(C)CN6C(=O)[C@@H](NC(=O)OC)C6CCCC6)[nH]c54)c3)cc2)[nH]1)C(C)C |  | 6.33 |  |  | 10.05 |  | 
4 | CCC(C)[C@H](NC(=O)OC)C(=O)N1CCC[C@H]1c1ncc(-c2ccc(-c3ccc4c(ccc5nc([C@@H]6C[Si](C)(C)CN6C(=O)[C@@H](NC(=O)OC)C(C)C)[nH]c54)c3)cc2)[nH]1 (stereo not given in full) |  | 6.19 |  |  | 9.82 |  | 
5 | COC(=O)N[C@H](C(=O)N1C[Si](C)(C)C[C@H]1c1ncc(-c2ccc(-c3cc4c(ccc5nc([C@@H]6CCCN6C(=O)[C@@H](NC(=O)OC)C(C)C)[nH]c54)s3)cc2)[nH]1)C(C)C |  | 5.63 | 11.22 |  | < 9.00 |  | 
6 | COC(=O)N[C@H](C(=O)N1C[Si](C)(C)C[C@H]1c1ncc(-c2ccc(-c3ccc4c(ccc5nc([C@@H]6CCCN6C(=O)[C@@H](NC(=O)OC)C(C)C)[nH]c54)c3)cc2OC)[nH]1)C(C)C |  | 6.30 |  |  | 9.57 |  | 
7 | COC(=O)N[C@H](C(=O)N1CCC[C@H]1c1ncc(-c2ccc(-c3ccc4c(ccc5nc([C@@H]6C[Si](C)(C)CN6C(=O)[C@@H](NC(=O)OC)C(C)C)[nH]c54)c3)cc2)[nH]1)C(C)C | 9.59 | 7.46 | 11.40 | 11.40 | 11.52 | 3.2 | 6.6
8 | CCC(C)[C@H](NC(=O)OC)C(=O)N1C[Si](C)(C)C[C@H]1c1nc2ccc3cc(-c4ccc(-c5cnc([C@@H]6CCCN6C(=O)[C@@H](NC(=O)OC)C(C)C)[nH]5)cc4)ccc3c2[nH]1 (stereo not given in full) |  | 6.55 |  |  | 10.10 |  | 
9 | COC(=O)N[C@H](C(=O)N1C[Si](C)(C)C[C@H]1c1nc2ccc3cc(-c4ccc(-c5cnc([C@@H]6CCCN6C(=O)[C@@H](NC(=O)OC)C(C)OC)[nH]5)cc4)ccc3c2[nH]1)C(C)C (stereo not given in full) |  | 6.65 |  |  | 10.15 |  | 
10 | COC(=O)N[C@H](C(=O)N1C[Si](C)(C)C[C@H]1c1ncc(-c2ccc(-c3ccc4c(ccc5nc([C@@H]6CC(F)(F)CN6C(=O)[C@@H](NC(=O)OC)C(C)C)[nH]c54)c3)cc2)[nH]1)C(C)C |  | 7.19 |  |  |  | 7.6 | 6.7
11 | COC(=O)N[C@H](C(=O)N1CCC[C@H]1c1ncc(-c2ccc(-c3cc4cc(-c5cnc([C@@H]6C[Si](C)(C)CN6C(=O)[C@@H](NC(=O)OC)C(C)C)[nH]5)ccc4o3)cc2)[nH]1)C(C)C | 7.82 | 6.82 | 11.52 | 8.62 | 10.40 |  | 
12 | COC(=O)N[C@H](C(=O)N1C[Si](C)(C)C[C@H]1c1nc2ccc3cc(-c4ccc(-c5cnc([C@@H]6[C@@H]7C[C@@H](C(F)C7F)N6C(=O)[C@@H](NC(=O)OC)C(C)C)[nH]5)cc4)ccc3c2[nH]1)C(C)C (stereo not given in full) |  | 6.69 | 11.70 |  | 10.40 |  | 
13 | COC(=O)N[C@H](C(=O)N1C[C@H](O)C[C@H]1c1ncc(-c2ccc(-c3ccc4c(ccc5nc([C@@H]6C[Si](C)(C)CN6C(=O)[C@@H](NC(=O)OC)C(C)C)[nH]c54)c3)cc2)[nH]1)C(C)C |  | 7.36 | 11.30 |  | 10.22 |  | 
14 | COC(=O)N[C@H](C(=O)N1CC(C)(C)C[C@H]1c1ncc(-c2ccc(-c3ccc4c(ccc5nc([C@@H]6C[Si](C)(C)CN6C(=O)[C@@H](NC(=O)OC)C(C)C)[nH]c54)c3)cc2)[nH]1)C(C)C |  | 7.05 | 11.52 |  | 10.82 |  | 
15 | COC(=O)N[C@H](C(=O)N1C[Si](C)(C)C[C@H]1c1nc2ccc3cc(-c4ccc(-c5cnc([C@@H]6[C@H]7CC[C@H](C7)N6C(=O)[C@@H](NC(=O)OC)C(C)C)[nH]5)cc4)ccc3c2[nH]1)C(C)C |  | 6.88 | 11.00 |  | 10.05 |  | 
16 | COC(=O)N[C@H](C(=O)N1C[Si](C)(C)C[C@H]1c1nc2ccc3cc(-c4ccc(-c5cnc([C@@H]6CCCN6C(=O)[C@@H](NC(=O)OC)C6CCCC6)[nH]5)cc4)ccc3c2[nH]1)C(C)C |  | 6.23 |  |  | 9.70 |  | 
17 | COC(=O)N[C@H](C(=O)N1C[C@H](F)C[C@H]1c1ncc(-c2ccc(-c3ccc4c(ccc5nc([C@@H]6C[Si](C)(C)CN6C(=O)[C@@H](NC(=O)OC)C(C)C)[nH]c54)c3)cc2)[nH]1)C(C)C |  | 7.57 | 11.22 |  | 10.15 |  | 
18 | COC(=O)N[C@H](C(=O)N1CCC[C@H]1c1ncc(-c2ccc(-c3ccc(-c4cnc([C@@H]5C[Si](C)(C)CN5C(=O)[C@@H](NC(=O)OC)C(C)C)[nH]4)cc3)cc2)[nH]1)C(C)C | 9.30 | 7.04 | 11.52 | 10.40 | 10.40 |  | 

Row | Compound | pEC50 (Hepatitis C virus [1]) | pEC50 (Hepatitis C virus [2]) | pEC50 (Hepatitis C virus [3]) | pEC50 (Hepatitis C virus [4]) | pEC50 (Hepatitis C virus [5]) | AUC (Rattus norvegicus) [uM.hr/ml] | half-life [6] [h]
19 | COC(=O)N[C@H](C(=O)N1C[Si](C)(C)C[C@H]1c1nc2ccc3cc(-c4ccc(-c5cnc([C@@H]6CCCN6C(=O)[C@@H](NC(=O)OC)C6CC6)[nH]5)cc4)ccc3c2[nH]1)C(C)C |  | 6.59 |  |  | 10.10 |  | 
20 | COC(=O)N[C@H](C(=O)N1C[Si](C)(C)C[C@H]1c1ncc(-c2ccc(-c3ccc4c(ccc5nc([C@@H]6CCCN6C(=O)[C@@H](NC(=O)OC)C(C)C)[nH]c54)c3)cc2)[nH]1)C(C)C | 10.30 | 7.02 | 11.52 | 10.70 | 10.85 |  | 
21 | COC(=O)N[C@H](C(=O)N1C[Si](C)(C)C[C@H]1c1nc2ccc3cc(-c4ccc(-c5cnc([C@@H]6CCCN6C(=O)[C@@H](NC(=O)OC)C(C)O)[nH]5)cc4)ccc3c2[nH]1)C(C)C (stereo not given in full) |  | 6.24 |  |  | 9.85 |  | 
22 | COC(=O)N[C@H](C(=O)N1CCC[C@H]1c1ncc(-c2ccc(-c3ccc4c(ccc5nc([C@@H]6C[Si](C)(C)CN6C(=O)[C@@H](NC(=O)OC)C(C)OC)[nH]c54)c3)cc2)[nH]1)C(C)C (stereo not given in full) |  | 6.56 |  |  | 10.52 |  | 
23 | COC(=O)N[C@H](C(=O)N1C[Si]2(CCCC2)C[C@H]1c1ncc(-c2ccc(-c3ccc4c(ccc5nc([C@@H]6CCCN6C(=O)[C@@H](NC(=O)OC)C(C)C)[nH]c54)c3)cc2)[nH]1)C(C)C | 9.70 | 6.46 |  | 11.00 | 10.22 |  | 
24 | COC(=O)N[C@H](C(=O)N1C[Si](C)(C)C[C@H]1c1ncc(-c2ccc(-c3ccc4nc([C@@H]5CCCN5C(=O)[C@@H](NC(=O)OC)C(C)C)[nH]c4c3)cc2)[nH]1)C(C)C |  | 5.00 | 11.40 |  | < 9.00 |  | 
25 | COC(=O)N[C@H](C(=O)N1C[Si](C)(C)C[C@H]1c1ncc(-c2ccc(-c3ccc4c(ccc5nc([C@@H]6C[C@@H](F)CN6C(=O)[C@@H](NC(=O)OC)C(C)C)[nH]c54)c3)cc2)[nH]1)C(C)C |  | 8.00 | 11.52 |  | 10.70 |  | 
26 | COC(=O)N[C@H](C(=O)N1C[Si](C)(C)C[C@H]1c1ncc(-c2ccc(-c3ccc4c(ccc5nc([C@@H]6CCCN6C(=O)[C@@H](NC(=O)OC)C(C)C)[nH]c54)c3)cc2F)[nH]1)C(C)C |  | 6.48 |  |  | 10.30 |  | 
27 | COC(=O)N[C@H](C(=O)N1C[Si](C)(C)C[C@H]1c1ncc(-c2ccc(-c3ccc4c(ccc5nc([C@@H]6CCCN6C(=O)[C@@H](NC(=O)OC)C(C)C)[nH]c54)c3)cc2C2CC2)[nH]1)C(C)C |  | 5.80 |  |  | 9.37 |  | 
28 | COC(=O)N[C@H](C(=O)N1C[Si](C)(C)C[C@H]1c1ncc(-c2ccc(-c3ccc(-c4cnc([C@@H]5C[Si](C)(C)CN5C(=O)[C@@H](NC(=O)OC)C(C)C)[nH]4)cc3)cc2)[nH]1)C(C)C | 8.39 | < 6.00 | 11.00 | 9.60 | 9.70 |  | 
29 | COC(=O)N[C@H](C(=O)N1C[Si](C)(C)C[C@H]1c1ncc(-c2ccc(-c3ccc4c(ccc5nc([C@@H]6CCCN6C(=O)[C@@H](NC(=O)OC)C(C)C)[nH]c54)c3)cc2-c2cccs2)[nH]1)C(C)C |  | 5.94 |  |  | 9.30 |  | 
30 | COC(=O)N[C@H](C(=O)N1CCC(F)(F)C[C@H]1c1ncc(-c2ccc(-c3ccc4c(ccc5nc([C@@H]6C[Si](C)(C)CN6C(=O)[C@@H](NC(=O)OC)C(C)C)[nH]c54)c3)cc2)[nH]1)C(C)C |  | 6.14 |  |  | 10.00 |  | 
31 | COC(=O)N[C@H](C(=O)N1C[Si](C)(C)C[C@H]1c1nc2ccc3cc(-c4ccc(-c5cnc([C@@H]6C[C@H]7C[C@H]7N6C(=O)[C@@H](NC(=O)OC)C(C)C)[nH]5)cc4)ccc3c2[nH]1)C(C)C |  | 7.52 |  |  |  |  | 
32 | COC(=O)N[C@H](C(=O)N1CCC[C@H]1c1ncc(-c2ccc(-c3ccc4c(ccc5nc([C@@H]6C[Si](C)(C)CN6C(=O)[C@@H](NC(=O)OC)C6CC6)[nH]c54)c3)cc2)[nH]1)C(C)C |  | 7.06 |  |  | 10.30 |  | 
33 | COC(=O)N[C@H](C(=O)N1CCC[C@H]1c1ncc(-c2ccc(-c3ccc4c(ccc5nc([C@@H]6C[Si](C)(C)CN6C(=O)[C@@H](NC(=O)OC)C(C)O)[nH]c54)c3)cc2)[nH]1)C(C)C (stereo not given in full) |  | < 6.00 |  |  | 9.22 |  | 
34 | COC(=O)N[C@H](C(=O)N1C[Si](C)(C)C[C@H]1c1ncc(-c2ccc(-c3ccc4c(ccc5nc([C@@H]6CCCN6C(=O)[C@@H](NC(=O)OC)C(C)C)[nH]c54)c3)s2)[nH]1)C(C)C |  | 6.04 | 11.40 |  | 9.85 |  | 
35 | COC(=O)N[C@H](C(=O)N1CCS(=O)(=O)C[C@H]1c1ncc(-c2ccc(-c3ccc4c(ccc5nc([C@@H]6C[Si](C)(C)CN6C(=O)[C@@H](NC(=O)OC)C(C)C)[nH]c54)c3)cc2)[nH]1)C(C)C |  | 6.42 | 11.00 |  | 9.70 |  | 
36 | COC(=O)N[C@H](C(=O)N1CC(F)(F)C[C@H]1c1ncc(-c2ccc(-c3ccc4c(ccc5nc([C@@H]6C[Si](C)(C)CN6C(=O)[C@@H](NC(=O)OC)C(C)C)[nH]c54)c3)cc2)[nH]1)C(C)C |  | 7.34 |  |  | 10.82 | 5 | 
